Results as given in patent publication US11844866B2, “Gastroretentive extended release dosage form” (Novelstar Pharmaceuticals, Inc., priority 2020, dated 2023).
Where two headings read alike, the source gives them in different places.

Assays:
[1] = on storage and in vivo; cited from earlier work
[2] = cited from earlier work
[3] = previously reported dosage form; cited from earlier work
[4] = Solubility of Tofacitinib citrate in different pH media and water; format: physicochemical; settings: 37 °C, read-out: Solubility @37° C., mg/mL for 6 hours
Protocol: The active substance is a white to off-white solid, slightly soluble in water (2.9 mg/mL) and non-hygroscopic. Tofacitinib contains two chiral centers at C3 and C4. The active substance is the enantiomer with absolute configuration (R) for both the C-3 and the C-4 positions. The overall stereochemistry of tofacitinib is therefore considered as critical and is assured by the quality of the starting materials and the route of synthesis design.
Polymorphism has been studied for the active substance. The crystalline citrate salt, Form A, has been the sole development form of the active substance used in all toxicology and clinical studies. The solubility Tofacitinib citrate is pH dependent, the solubility is decried with pH increasing. […] The pH dependent solubility can lead to pH-dependent in vivo drug release from sustained release matrices. Drug release varies as a function of movement through segments of the gastrointestinal tract with different pH. […] The Tofacitinib citrate gastric retention drug delivery system that would provide the highest bioavailability are very desirable because the drug active has highest solubility in the stomach.

[5] = slightly soluble; cited from earlier work
[6] = API stability studies (stress, long term, accelerated; enantiomer interconversion); format: physicochemical
Description: Polymorphism has been observed for Apremilast and seven polymorphic forms (designated A-G) of the active substance were identified.
An amorphous form generally provides better solubility and bioavailability than the crystalline form and may be useful for formulations which can have better solubility, and compressibility etc. which are important for formulation and product manufacturing.

[7] = API particle size (d90); format: physicochemical; settings: API particles

CCOc1cc([C@@H](CS(C)(=O)=O)N2C(=O)c3cccc(NC(C)=O)c3C2=O)ccc1OC [Apremilast, (+) enantiomer of 2-[1-(3-ethoxy-4-methoxyphenyl)-2-methanesulfonylethyl]-4-acetylaminoisoindolin-1,3-dione]
interconversion of (S)-enantiomer to (R)-enantiomer [1]: no interconversion | solubility in aqueous buffers ([2]; irrespective of pH range): practically insoluble | Biopharmaceutical Classification System class ([2]; low solubility and low permeability): BCS Class 4 | share of absorption taking place in the proximal small bowel [3]: about 93%

C[C@@H]1CCN(C(=O)CC#N)C[C@@H]1N(C)c1ncnc2[nH]ccc12.O=C(O)CC(O)(CC(=O)O)C(=O)O [Tofacitinib citrate, 3-((3R,4R)-4-methyl-3-(methyl(7H-pyrrolo[2,3-d]pyrimidin-4 yl)amino)piperidin-1-yl)-3-oxopropanenitrile, 2-hydroxypropane-1,2,3-tricarboxylic acid]
solubility at 6 h ([4]; pH 1.18, simulated gastric fluid, thermodynamic from solid, 0.1N HCl, final pH observed 1.18): 27.8 mg/mL | solubility at 6 h ([4]; pH 4.9, thermodynamic from solid, Water, final pH observed 4.90): 2.9 mg/mL | solubility at 6 h ([4]; pH 4.5 medium, aqueous buffer, thermodynamic from solid, pH 4.5, final pH observed 4.50): 4.57 mg/mL | solubility at 6 h ([4]; pH 6.8 medium, aqueous buffer, thermodynamic from solid, pH 6.8, final pH observed 6.78): 2.03 mg/mL | solubility in water [5]: 2900 µg/mL

CCOc1cc([C@@H](CS(C)(=O)=O)N2C(=O)c3cccc(NC(C)=O)c3C2=O)ccc1OC [Apremilast Form B]
stability after exposing to different stress test conditions ([6]; stress test conditions): stable | particle size d90 [7]: 8 μm

CCOc1cc([C@@H](CS(C)(=O)=O)N2C(=O)c3cccc(NC(C)=O)c3C2=O)ccc1OC [Apremilast amorphous]
stability after 6 months ([6]; stress conditions, long term 25° C./60% RH and accelerated 40° C./75% RH): stable | particle size d90 ([7]; listed as Apremilast amorphous form): 22 μm
